One experiment relates to WT mice. In words: UVR-induced keratinocyte apoptosis and skin injury in WT mice treated topically before UVR. The format is in vivo, mouse. The settings on record: 4 mM topically prior to UVR, FIGS. 12B-12E.
Experiment [1] deals with Primary murine keratinocytes. In words: Mouse keratinocyte-LC co-culture exposed to UVR (activated caspase-3+ keratinocytes). The format is cell-based. Particulars: keratinocytes pre-treated with 2 μM for 30 minutes before LC co-culture and UVR. As to the method: FIGS. 13A and 13B. Effect of human LCs on human keratinocytes without UVR and further characterization of in vitro LC-keratinocyte EGFR signaling (13A) Effect of human LCs on human keratinocytes without UVR. Primary human keratinocytes were co-cultured with or without human LCs and activated caspase-3+ keratinocytes were enumerated 24 hours later (n=3 human LC donors). Validation of siRNA-mediated EGFR knockdown in primary murine keratinocytes was performed. Keratinocytes were treated with control or EGFR-targeted siRNAs (#1 and #2) and EGFR expression was measured 5 days later (on the day of UVR exposure) by flow cytometry. […]
For immunofluorescence staining of cell culture experiments, polystyrene chamber slides (Lab-Tek) with cultured keratinocytes were washed with PBS, fixed with 4% paraformaldehyde for 20 minutes, permeabilized and blocked with Triton-X (0.2%) and BSA (1%), and stained as indicated. Activated caspase-3+ and total DAPI+ cells were quantified with ImageJ software by a blinded observer and the percent of activated caspase-3+ Langerin− cells (keratinocytes) and activated caspase-3+ Langerin+ cells (LCs) was calculated.
Primary mouse keratinocyte cultures were prepared from mouse tail skin as described (23). […] The co-cultures rested overnight and were then exposed to UVR and analyzed 24 hours later. […]

The subject of experiment [2] is ADAM17. In words: Ex vivo ADAM17 activity assay by TNFR1 cleavage, sorted murine LCs. Particulars: 25 ng/mL, 45 minutes. The class given is cell-based, mouse. The protocol: FIGS. 6A-6D. UVR directly activates LC ADAM17 and EGFR ligand release. (6A, 6B) Effect of UVR on ADAM17 activity in sorted murine (6A) and human (6B) LCs as measured by change in TNFR1 mean fluorescence intensity (MFI) 45 minutes after the indicated treatments. PMA is a positive control. (n=5-6 mice; n=4 human donors). (6C,6D) Conditioned supernatants from murine (6C) or human LCs (6D) were added to A431 EGFR indicator cells and phosphoEGFR was measured 10 minutes later by flow cytometry. Murine LC supernatants were from (6A); human LC supernatants were from cells treated similarly to (6B), except that antibody was washed out prior to UVR (see Example 8). Left: Representative histogram. Right: Quantification relative to cells treated with control WT LC supernatants (6C) or control IgG-treated LC supernatants (6D). […]
To measure ADAM17 activity, we quantified the level of cell-surface tumor necrosis factor receptor 1 (TNFR1), a substrate for ADAM17 (31). […]
Sorted mouse LCs were plated in a 96-well plate at 20,000-25,000 cells/well in RPMI 1640 supplemented with L-glutamine, penicillin/streptomycin, and HEPES buffer. The cells were treated with phorbol 12-myristate 13-acetate (PMA) (Sigma-Aldrich) at 25 ng/mL or UVR (500 J/m2) and analyzed 45 minutes later. […] ADAM17 activity is expressed as the percent change in TNFR1 mean fluorescence intensity (MFI) relative to that of untreated LCs. […]

Experiment [3] deals with ADAM17. The settings on record: mouse embryonic fibroblasts; cited from earlier work.
The next experiment has as its system epithelial wound healing. The settings on record: used at 0.1 μg/ml; cited from earlier work.

`C=CC(=O)Nc1ccc2ncnc(Nc3cccc(Br)c3)c2c1` [PD168393]: the “UVR-induced keratinocyte apoptosis and skin injury” value with WT mice was “increased”. In addition, the “protective effect of LCs against UVR-induced keratinocyte apoptosis” value in experiment [1] is “abolished the protective effect of LCs”.

Regarding `CCCCCCCCCCCCCC(=O)O[C@@H]1[C@@H](C)[C@@]2(O)[C@@H](C=C(CO)C[C@]3(O)C(=O)C(C)=C[C@@H]23)[C@@H]2C(C)(C)[C@]12OC(C)=O` [PMA, phorbol 12-myristate 13-acetate], in the experiment on ADAM17 [2], the “LC cell-surface TNFR1 (ADAM17 activity)” value is “reduced”. For “Lysophosphatidic acid [LPA, reference compound]”, the ADAM17 activation entry with ADAM17 [3] is “activated”. Regarding TGFα: EGFR ligand, the epithelial wound healing result in the experiment with epithelial wound healing is “enhance”. As to TNFα, the ADAM17 activation result with ADAM17 [3] is “activated”. In the case of Thrombin, in the experiment with ADAM17 [3], the ADAM17 activation entry is on record as “activated”.

The values above are taken from US20220273679A1, “METHODS AND COMPOSITIONS FOR TREATING AND PREVENTING DAMAGE TO SKIN” (New York Society for the Relief of the Ruptured and …, priority 2019, published 2022).
